The test has as its system HeLa cells. Description: Doxorubicin-induced G2M checkpoint abrogation HeLa cell-based Acumen assay (pHH3). As to conditions: 125 nM doxorubicin, 7 h compound. The protocol:
An inhibitor of Chk1 will disable the G2M DNA damage checkpoint in p53-minus tumor cells treated with the topoisomerase II inhibitor, doxorubicin. A measurement of G2M checkpoint abrogation is the phosphorylation of histone H3 on serine 10 that occurs after cells traverse the G2M checkpoint and enter mitosis. The following high content imaging assay can be used to measure the phosphorylation histone H3 in cells. HeLa cells are cultured in MEM Media supplemented with 10% (v/v) FBS and plated at 2000 cells per well in poly D-lysine coated clear bottom black plates, 100 μL volume per well. Plates are then incubated in a cell culture incubator for 18-24 h (37° C., 5% CO2 and 95% relative humidity), Following the initial incubation, 20 μL of MEM Media plus 10% FBS containing […] doxorubicin are added to the appropriate wells of the plates resulting in a final concentration of 125 nM. The plates are returned to the incubator for 24 h, sufficient to arrest the cells at the G2M checkpoint. The next day the cells are treated 1.0 with compounds. Compounds are solubilized at […] in 100% DMSO and then diluted to a 10× stock starting at 50 μM in MEM plus 4% (v/v) DMSO. Subsequently, serial dilutions of the compounds (1:2) are prepared over a 50 μM to 0.39 μM range. Thirteen μL of compound stock is added to the appropriate wells in the plate to produce a final DMSO concentration of 0.4% and a final compound concentration range between 5 and 0.039 μM. […] Plates are scanned with ACUMEN EXPLORER™ Laser-scanning fluorescence microplate cytometers using 488 nm excitation (TTP LABTECH LTC) to measure pHH3 and DNA content including 2N, and 4N, The pHH3 positive cells are identified by mean intensity at 519 nm from Alexa 488. […] The final readout for each population is determined by normalizing to the % of total cells producing a final assay output of % pHH3, % 2N, and % 4N. 100% activity is then determined by treating cells with the maximum concentration of an inhibitor control compound at 100 nM to determine the final % activity of each compound. […]

Structures are written as SMILES. Counter-ions that a name gives are not always drawn.

For the setting “Homo sapiens, HeLa, 7 h”, `COc1nc(C)ccc1-c1cc(Nc2cncc(O[C@@H]3CCCNC3)n2)[nH]n1` [Example 1, (R)-[5-(2-Methoxy-6-methyl-pyridin-3-yl)-2H-pyrazol-3-yl]-[6-(piperidin-3-yloxy)-pyrazin-2-yl]-amine] displayed an EC50 of 29 nM.
In the case of `COc1nc(C)ccc1-c1cc(Nc2cncc(O[C@@H]3CCCNC3)n2)[nH]n1` [Example 3, (R)-[5-(2-Methoxy-6-methyl-pyridin-3-yl)-2H-pyrazol-3-yl]-[6-(piperidin-3-yloxy)-pyrazin-2-yl]-amine acetic acid salt], the EC50 (acetic acid salt) was 19 nM.

A word on the EC50: it is the midpoint of the concentration-response curve.

For the origin of these results see patent US9067920B2, “Compounds useful for inhibiting Chk1” (Eli Lilly and Company, priority 2010, dated 2015).
